In brackets after ≈: the same amount, converted by molar mass.
Legend:
HT-29 = assay: Cytotoxicity against human HT-29 cells by MTT assay; type: functional, cell-based
[1] = Cytotoxicity against human HCT 116 cells by MTT assay; type: functional, cell-based

SMILES	IC50 (HT-29) [µg/mL]	IC50 [1] [µg/mL]
CC(C)=CC(=O)O[C@H]1CC(C)(C)C[C@H]2C3=CC[C@@H]4[C@@]5(C)CC[C@H](O[C@@H]6O[C@H](C(=O)O)[C@@H](O[C@H]7O[C@H](C)[C@@H](O)[C@H](O)[C@@H]7O)[C@H](O)[C@H]6O[C@@H]6O[C@H](CO)[C@@H](O)[C@H](O)[C@H]6O)C(C)(C)[C@@H]5CC[C@@]4(C)[C@]3(C)[C@@H](O)[C@@H](O)[C@@]12CO	40 (≈ 37.8 µM)	40 (≈ 37.8 µM)
C/C=C(/C)C(=O)O[C@H]1[C@H](O)C(C)(C)C[C@H]2C3=CC[C@@H]4[C@@]5(C)CC[C@H](O[C@@H]6O[C@H](C(=O)O)[C@@H](O[C@@H]7O[C@@H](C)[C@H](O)[C@@H](O)[C@H]7O)[C@H](O)[C@H]6O[C@H]6O[C@@H](CO)[C@H](O)[C@@H](O)[C@@H]6O)C(C)(C)[C@@H]5CC[C@@]4(C)[C@]3(C)[C@@H](O)[C@@H](O)[C@]21CO	> 100	> 100
CC(C)=CC(=O)O[C@H]1CC(C)(C)C[C@H]2C3=CC[C@@H]4[C@@]5(C)CC[C@H](O[C@@H]6O[C@H](C(=O)O)[C@@H](O)[C@H](O)[C@H]6O[C@H]6O[C@H](C)[C@@H](O)[C@H](O)[C@@H]6O)C(C)(C)[C@@H]5CC[C@@]4(C)[C@]3(C)[C@@H](O)[C@@H](O)[C@@]12CO	40 (≈ 44.7 µM)	40 (≈ 44.7 µM)
C/C=C(/C)C(=O)O[C@H]1[C@H](O)C(C)(C)C[C@H]2C3=CC[C@@H]4[C@@]5(C)CC[C@H](O[C@@H]6O[C@H](C(=O)O)[C@@H](O)[C@H](O)[C@H]6O[C@H]6O[C@H](C)[C@@H](O)[C@H](O)[C@@H]6O)C(C)(C)[C@@H]5CC[C@@]4(C)[C@]3(C)[C@@H](O)[C@@H](O)[C@]21COC(C)=O	> 100	> 100
C/C=C(/C)C(=O)O[C@H]1[C@H](OC(C)=O)C(C)(C)C[C@H]2C3=CC[C@@H]4[C@@]5(C)CC[C@H](O[C@@H]6O[C@H](C(=O)O)[C@@H](O)[C@H](O)[C@H]6O[C@H]6O[C@H](C)[C@@H](O)[C@H](O)[C@@H]6O)C(C)(C)[C@@H]5CC[C@@]4(C)[C@]3(C)[C@@H](O)[C@@H](O)[C@]21CO	40 (≈ 42 µM)	40 (≈ 42 µM)
CC(=O)OC1[C@H](OC(=O)C=C(C)C)[C@]2(CO)[C@H](O)[C@H](O)[C@]3(C)C(=CC[C@@H]4[C@@]5(C)CC[C@H](O[C@@H]6O[C@H](C(=O)O)[C@@H](O)[C@H](O)[C@H]6O[C@H]6O[C@H](C)[C@@H](O)[C@H](O)[C@@H]6O)C(C)(C)[C@@H]5CC[C@]43C)[C@@H]2CC1(C)C (stereo not given in full)	40 (≈ 42 µM)	40 (≈ 42 µM)
C/C=C(/C)C(=O)O[C@H]1[C@H](O)C(C)(C)C[C@H]2C3=CC[C@@H]4[C@@]5(C)CC[C@H](O[C@@H]6O[C@H](C(=O)O)[C@@H](O)[C@H](O)[C@H]6O[C@H]6O[C@H](C)[C@@H](O)[C@H](O)[C@@H]6O)C(C)(C)[C@@H]5CC[C@@]4(C)[C@]3(C)[C@@H](O)[C@@H](O)[C@]21CO	40 (≈ 43.9 µM)	40 (≈ 43.9 µM)
CC(=O)O[C@H]1C(=O)[C@@]2(C)[C@H]([C@H](OC(=O)c3ccccc3)[C@]3(O)C[C@H](OC(=O)[C@H](O)[C@@H](NC(=O)c4ccccc4)c4ccccc4)C(C)=C1C3(C)C)[C@]1(OC(C)=O)CO[C@@H]1C[C@@H]2O [PACLITAXEL]	–	0.008 (≈ 0.00937 µM)

— ChEMBL document CHEMBL1158028, “Triterpene saponins from Eryngium campestre” (J Nat Prod, 2006)
